Values quoted from earlier work as cited in patent US20090252806A1, “NANOPARTICULATE TACROLIMUS FORMULATIONS” (Elan Pharma International Ltd., priority 2004, published 2009).
Read-outs that look alike come from different tables or passages of the source.

Experiments:
[1] = for reduction of mean AUC relative to the fasted condition / reduction of mean Cmax relative to the fasted condition: healthy volunteers (N=16)
[2] = U.S. study; average (range)
[3] = oral
[4] = 18 fasted healthy volunteers; single oral dose of 3 mg, 7 mg, and 10 mg
[5] = 15 minutes after a high fat (400 kcal, 34% fat) breakfast, 11 liver transplant patients
[6] = administered 1.5 hours following the meal
[7] = given immediately following the meal

decreased AUC as compared to a fasted state [1, 5]: 27±18%
decreased Cmax as compared to a fasted state [1, 5]: 50±19%
reduction of mean AUC relative to the fasted condition [1, 6]: 39%
reduction of mean Cmax relative to the fasted condition [1, 6]: 63%
reduction of mean AUC relative to the fasted condition [1, 7]: 39%
reduction of mean Cmax relative to the fasted condition [1, 7]: 71%
lengthening of Tmax ([1]; high-fat meal (848 kcal, 46% fat), 15 healthy volunteers): 5 fold
ratio of whole blood concentration to plasma concentration [2]: 35 (range 12 to 67)
absolute bioavailability ([3]; adult kidney transplant patients (N=26)): 17±10%
absolute bioavailability ([3]; adult liver transplant patients (N=17)): 22±6%
increase of Cmax and AUC with dose [4]: dose-proportional
solubility (in chloroform): very soluble
solubility (in ethanol): freely soluble
solubility (in methanol): very soluble
solubility (in water): practically insoluble
SMILES: C=CC[C@@H]1/C=C(\C)C[C@H](C)C[C@H](OC)[C@H]2O[C@@](O)(C(=O)C(=O)N3CCCC[C@H]3C(=O)O[C@H](/C(C)=C/[C@@H]3CC[C@@H](O)[C@H](OC)C3)[C@H](C)[C@@H](O)CC1=O)[C@H](C)C[C@@H]2OC [tacrolimus, Tacrolimus]
